Reference: patent publication EP1121940A1, “Pharmaceutical compositions comprising an antibiotic and bromhexine, and process for their preparation” (New Pharma Research Sweden AB, priority 2000, dated 2001)

How the values were obtained:
[1] = solutions of pH greater than six; cited from earlier work
Escherichia coli = assay: Efficacy in the treatment of Escherichia coli infected chickens; type: in vivo, broiler chickens; conditions: oral via drinking water, three consecutive days, recorded over ten days following treatment
Text: (§1) The aim of this study was to evaluate the effect of a treatment with a composition in accordance with the present invention on the mortality and clinical signs of chickens naturally infected by Escherichia coli, and to compare the efficacy of this treatment with the efficacy of a treatment with a composition containing only the antibiotic.
10 000 broiler chickens aged 1 day were used for the experiment. The birds were infected by natural infection by Escherichia coli.
(§2) The birds were then divided into 2 equal groups of 5 000 birds each. The first group was treated with a composition containing only enrofloxacin. The second group was treated with the composition of Example 1 of the present invention, containing both enrofloxacin and bromhexine-HCl. Thus, 1 ml of composition contained either 200 mg of enrofloxacin (composition for the treatment of the first group) or 200 mg of enrofloxacin and 10 mg of bromhexine-HCl (composition for the treatment of the second group).
For both groups, the treatment was made orally, for three consecutive days, and using the drinking water, at a dose of 1 ml of active composition per 4 litres of drinking water.
To assess the efficacy of the treatment, the mortality and body weight of the animals were recorded for each group over a period of ten days following the treatment.

pneumonia infection = assay: Efficacy in the treatment of calves suffering from a pneumonia infection; type: in vivo; conditions: intramuscular injection once a day for four consecutive days, results after 5 days
Text: as §1, with “calves suffering from a pneumonia infection,” for “chickens naturally infected by Escherichia coli,”
20 calves aged 1 to 4 months were used for the experiment. The animals were suffering from a pneumonia infection, characterized by severe respiratory disorders including coughing, rale and increased body temperature (measured between +39.5°C and +41°C).
as §2, with “calves” for “birds”, “were” for “were then”, “10 animals” for “5 000 birds”, “invention, i.e.” for “invention,”
For both groups, the treatment was made by intramuscular injection, once a day and for four consecutive days, at a dose of 1 ml of active composition per 80 kg of animal body weight.
To assess the efficacy of the treatment, the mortality and body temperature of the animals were recorded for each group over a period of ten days following the treatment.

| SMILES | precipitation in solutions [1] | Mortality % (Escherichia coli; 1 ml composition per 4 litres) [%] | Mortality dead birds (Escherichia coli; 1 ml composition per 4 litres, 5000 birds per group) | Weight g/bird (Escherichia coli) [g/bird] | Mortality % (pneumonia infection; 1 ml per 80 kg body weight) [%] | Mortality dead animals (pneumonia infection; 1 ml per 80 kg body weight, 10 calves per group) | Body temperature (pneumonia infection) |
| --- | --- | --- | --- | --- | --- | --- | --- |
| CN(Cc1cc(Br)cc(Br)c1N)C1CCCCC1.Cl [Bromhexine-HCl, N-(2-amino-3,5-dibromobenzyl)-N-methyl-cyclohexylamine hydrochloride] | precipitate |  |  |  |  |  |  |
| CCN1CCN(c2cc3c(cc2F)c(=O)c(C(=O)O)cn3C2CC2)CC1 [Enrofloxacine, 1-cyclopropyl-7-(4-ethyl-1-piperazinyl)-6-fluoro-1,4-dihydro-4-oxo-3-quinoline carboxylic acid] |  | 2.23 | 113/5000 | 1810 | 10 | 1/10 | over 41.5 °C |
